Assays:
activated CD4+ T cells = experiment: Survival of activated CD4+ T cells treated with TLR ligands (7-AAD/annexin exclusion); format: cell-based, mouse
Method: All CD4^+ T cell activation was conducted in complete culture medium composed of RPMI 1640 (Life Technologies, Grand Island, N.Y.), 1.5 μM 2-ME (Sigma-Aldrich, St. Louis, Mo.), 50 μg/ml gentamicin (Life Technologies), and 10% FCS (Mediatech, Washington, D.C.) at 37° C. in 5% CO2. Purified CD4^+ T cells from either BALB/c, MyD88^−/−, or MyD88^+/+ wild-type control littermates were activated on 24-well plates (Costar, Cambridge, Mass.) coated with 1.0 μg/ml CD3ε monoclonal antibody (2C11; BD Biosciences) and 1.0 μg/ml CD28 monoclonal antibody (37.51; BD Biosciences) for 16 hours. In experiments with DO11.10 mice, 1 μg/ml of pOVA, a peptide derived from chicken albumin amino acid residues […] was added to 2×10^6/ml erythrocyte-depleted splenocyte and lymph node cell pools for 16 hours. Following pOVA-induced activation, CD4^+ T cell APC complexes were disrupted with 5 mM EDTA/PBS for 10 minutes at 25° C., washed twice in PBS, and purified with magnetic beads using the MACS CD4^+ T cell isolation kit as described elsewhere herein. Purity of activated DO11.10 CD4^+ T cells exceeded 96%. As described elsewhere herein, the remainder of the contaminants by FACS analysis were CD8^+ T cells, with APCs at <0.1% by RT-PCR.
(§1) Following activation, purified CD4^+ T cells were washed twice in PBS and replated in culture medium at 10^6/ml. Cultures were left untreated or treated with either TLR ligands and/or inhibitors for indicated times and concentrations. Following incubation, CD4^+ T cells were washed twice in PBS/2% FBS and stained with CD4-allophycocyanin monoclonal antibody and 7-aminoactinomycin D (7-AAD; BD PharMingen) or annexin (BD PharMingen) and survival was assessed by exclusion of either of these two stains. For absolute live cell counts 50,000 CD45.1^+ splenocytes labeled with anti-CD45.1-PE monoclonal antibody (A20; BD PharMingen) were also added to stained CD4^+ T cell sample FACS tubes just before FACS analysis. Live CD4^+ T cell counts were calculated by taking the ratio of the number of CD4^+CD45.1^−7-ADD^− events collected to the number CD45.1^+ events collected and multiplying by 50,000. Proliferation was measured by CFSE dye dilution as previously described (Wells et al., 1997 J. Clin. Invest. 100:3173).
TLR ligands directly promote the survival of several cell types including neutrophils, DC, and B cells (Lundqvist et al., 2002, Cancer Immunol. Immunother. 51:139; Sabroe et al., 2003, J. Immunol. 170:5268; Grillot et al., 1996, J. Exp. Med. 183:381; Grillot et al., 1996, J. Exp. Med. 183:381). Since it was observed that activated CD4^+ T cells also express TLRs and signal in response to TLR ligands, the next set of experiments were designed to assess whether TLR ligands could directly enhance survival of these cells. DO11.10 CD4^+ T cells, that encode a transgenic TCR specific for a peptide derived from chicken OVA (pOVA), were activated with pOVA-pulsed APCs for 16 hours ex vivo, purified by magnetic beads to remove all non-CD4^+ T cells, and replated in unsupplemented culture medium in the absence or presence of TLR ligands. Survival was then assessed 72 hours following activation (FIG. 3A). Poly(I:C) or CpG DNA induced increases of activated CD4^+ T cell survival from 38% to 71 and 73%, respectively.

[1] = system: MyD88-/- activated CD4+ T cells; experiment: TLR ligand-mediated survival of MyD88-/- activated CD4+ T cells; format: cell-based, mouse; details: FIG. 4B
Excerpt: BALB/c mice were purchased from The Jackson Laboratory (Bar Harbor, Me.). DO11.10 mice on the BALB/c background have been described previously (Hsieh et al., 1992, Proc. Natl. Acad. Sci. USA 89:6065). MyD88^−/− mice have been described previously (Adachi et al., 1998, Immunity 9:143). For these experiments MyD88^+/− mice were backcrossed at least five times onto a C57BL/6 background and intercrossed to generate MyD88^−/− and MyD88^+/+ wild-type control littermates.
as §1, with “For absolute live cell counts 50,000 CD45.1^+ splenocytes labeled with anti-CD45.1-PE monoclonal antibody (A20; BD PharMingen) were also added to stained CD4^+ T cell sample FACS tubes just before FACS analysis.” left out, “100:3173). […]” for “100:3173).”

Substance: poly(I:C)
- activated CD4+ T cell survival (activated CD4+ T cells; 72 hours following activation, DO11.10 CD4+ T cells activated with pOVA-pulsed APCs, purified, untreated 38% (FIG. 3A)): 71%
- effect on activated CD4+ T cell survival (dose response) (activated CD4+ T cells; FIG. 3B, purified activated CD4+ T cells): dose-dependent manner
- activated CD4+ T cell survival in TLR ligand-treated cultures spiked with APCs (activated CD4+ T cells; T cell-depleted lymph node cells and splenocytes (APC) added): significantly increased dose-responsive survival
- enhanced survival response in MyD88-/- activated CD4+ T cells [1]: left intact

From patent US20090220528A1, “Stimulation of Toll-Like Receptors on T Cells” (THE TRUSTEES OF THE UNIVERISTY OF PENNSYLVANIA CNETER FOR …, priority 2005, published 2009)
